Experimental data reported in Sander's compilation of Henry's law constants (doi:10.1016/s1387-3806(02)00927-2).

Experiments:
Details in all cases: reference: Karl et al. (2003)
[1] = Henry solubility constant Hcp at 298.15 K (mol/(m3 Pa))
[2] = Henry solubility constant Hcp at 295 K (mol/(m3 Pa))
[3] = Henry solubility constant Hcp at 291 K (mol/(m3 Pa))

| Compound | Henry solubility constant Hcp [1] | Henry solubility constant Hcp at 295 K [2] | further results |
| --- | --- | --- | --- |
| CC/C=C/CCOC(C)=O [(E)-3-hexenyl ethanoate] | 0.033 |  |  |
| Cc1cccc(C)c1 [1,3-dimethylbenzene] |  | 0.0013 |  |
| CCc1cccc(O)c1 [1-hydroxy-3-ethylbenzene] | 4.9 |  |  |
| Cc1ccccc1 [methylbenzene] |  | 0.0014 |  |
| Cc1cc(C)cc(C)c1 [1,3,5-trimethylbenzene] |  | 0.002 |  |
| c1ccccc1 [benzene] |  | 0.0018 |  |
| C=CC(=C)C [2-methyl-1,3-butadiene] |  |  | Henry solubility constant Hcp at 291 K [3]: 0.00029 |
| CC/C=C\CCOC(C)=O [(Z)-3-hexenyl ethanoate] | 0.031 |  |  |
| CCC/C=C/C=O [(E)-2-hexenal] | 0.14 |  |  |
| CCCc1ccccc1 [propylbenzene] |  | 0.0015 |  |
| CC1=CC=C(C(C)C)CC1 [1-methyl-4-(1-methylethyl)-1,3-cyclohexadiene] |  | 0.00045 |  |
| COc1nccnc1CC(C)C [2-isobutyl-3-methoxypyrazine] | 0.17 |  |  |
| CCCCCCOC(C)=O [hexyl ethanoate] | 0.015 |  |  |
